Twelve compounds from patent US20200078468A1, “NEUROTENSIN RECEPTOR BINDING CONJUGATES AND FORMULATIONS THEREOF” (priority 2016, published 2020) can be followed below.

Structures are written as SMILES. Where only a bound is given, the exact number is not on record here.

Broadly, the Ki is the equilibrium dissociation constant of an inhibitor or competing ligand from its target.

Test [1] concerns SW48 (human colon cancer cells). The test is described as follows: inhibition of SW48 cell proliferation (CellTiter Glo). It is filed as cell-based. Particulars: NTSR1 targeted compound; 72 hrs; read-out: SW-48 proliferation IC50. Summed up: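 Cells plated at 5,000/well and grown 24 hrs were exposed to conjugates for 72 hrs at 37° C, 5% CO2, in a ten-point three-fold series starting at 10 μM; vehicle was 0.01% DMSO. Proliferation was read by CellTiter Glo. % inhibition was taken relative to vehicle, with IC50 from four-parameter nonlinear regression.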
A general note: Cellular ATP, detected with luciferase, serves as a proxy for viable cell number.

The target of test [2] is T1, human NTSR1 (Homo sapiens, UniProt P30989).
T1 construct: host or cells: HEK-293 cells (membrane preparations)
The test is described as follows: radioligand-receptor binding assay, [125I] labeled neurotensin (Eurofins Panlabs). As to conditions: [125I] neurotensin 0.02 nM, membranes from NTSR1 expressing HEK-293 cells, 45 minute incubation, Cheng and Prusoff; read-out: NTSR1 binding Ki. How it is done: Conjugates were assessed in an in vitro assay evaluating binding to NTSR1. A radioligand-receptor binding assay was conducted at Eurofins Panlabs (Taiwan) to determine the affinity of conjugates described herein to NTSR1. The assay measures binding of radiolabeled ligand, [^125I] labeled neurotensin, to human NTSR1 using membrane preparations from NTSR1 expressing HEK-293 cells (Human embryonic kidney cells 293). Membranes were incubated with radiolabeled neurotensin (0.02 nM) in the presence of conjugate/compound starting at a dose of either 100 nM, or 10 nM, using 3× serial dilutions to obtain a 6-pt curve. After a 45 minute incubation, membranes were filtered and washed 3× and counted to determine the remaining [^125I] neurotensin bound to the receptor. IC50 values were determined by a non-linear, least squares regression analysis using MathIQ™ (ID Business Solutions Ltd., UK). The Ki values were calculated using the equation of Cheng and Prusoff (Cheng and Prusoff, Biochem. Pharmacol. 22:3099-3108, 1973) using the observed IC50 of the tested conjugate/compound, the concentration of radioligand employed in the assay, and the historical values for the Kd of the ligand obtained at Eurofins.

T1 sequence (P30989 whole entry): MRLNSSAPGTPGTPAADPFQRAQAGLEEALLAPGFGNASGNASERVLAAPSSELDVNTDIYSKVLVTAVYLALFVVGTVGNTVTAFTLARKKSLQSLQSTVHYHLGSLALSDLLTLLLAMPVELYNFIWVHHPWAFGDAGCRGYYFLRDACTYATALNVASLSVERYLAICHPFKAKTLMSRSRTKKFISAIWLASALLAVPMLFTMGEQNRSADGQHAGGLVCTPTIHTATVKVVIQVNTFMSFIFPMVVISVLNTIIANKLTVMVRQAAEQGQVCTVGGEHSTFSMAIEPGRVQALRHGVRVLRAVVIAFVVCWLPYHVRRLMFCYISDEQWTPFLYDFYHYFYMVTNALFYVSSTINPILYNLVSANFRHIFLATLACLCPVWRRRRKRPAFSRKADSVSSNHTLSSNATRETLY

Consider `COc1cc2cc(c1Cl)N(C)C(=O)C[C@H](OC(=O)[C@H](C)N(C)C(=O)CCSC1CC(=O)N(CCCNC(=O)CNC(=O)[C@H](CC(C)C)NC(=O)[C@H](Cc3ccccc3)NC(=O)CNC(=O)CCCCCN3C(=O)CC(SC(C)(C)[C@H](NC(C)=O)C(=O)N4CCC[C@H]4C(=O)N[C@@H](CCCNC(=N)N)C(=O)N(C)[C@@H](CCCNC(=N)N)C(=O)N4CCC[C@H]4C(=O)N[C@@H](Cc4ccc(O)cc4)C(=O)N[C@H](C(=O)N[C@@H](CC(C)C)C(=O)O)C(C)(C)C)C3=O)C1=O)[C@]1(C)O[C@H]1[C@H](C)[C@@H]1C[C@@](O)(NC(=O)O1)[C@H](OC)/C=C/C=C(\C)C2` (stereo partly drawn) [Compound 17], for which the IC50 in test [1] worked out at 3.9 nM. In test [2], the Ki was 10.6 nM.

With `COc1cc2cc(c1Cl)N(C)C(=O)C[C@H](OC(=O)[C@H](C)N(C)C(=O)CCSC1CC(=O)N(CCCNC(=O)CNC(=O)[C@H](CC(C)C)NC(=O)[C@H](Cc3ccccc3)NC(=O)CNC(=O)CCCCCN3C(=O)CC(SC(C)(C)[C@H](NC(C)=O)C(=O)N4CCC[C@H]4C(=O)N[C@@H](CCCNC(=N)N)C(=O)N(C)[C@@H](CCCNC(=N)N)C(=O)N4CCC[C@H]4C(=O)N[C@H](Cc4ccc(O)cc4)C(=O)N[C@H](C(=O)N[C@@H](CC(C)C)C(=O)O)C(C)(C)C)C3=O)C1=O)[C@]1(C)O[C@H]1[C@H](C)[C@@H]1C[C@@](O)(NC(=O)O1)[C@H](OC)/C=C/C=C(\C)C2` (stereo partly drawn) [Compound 18], the IC50 in test [1] came out at 36 nM. Further, the Ki in test [2] is above 100 nM.

As for `COc1cc2cc(c1Cl)N(C)C(=O)C[C@H](OC(=O)[C@H](C)N(C)C(=O)CCSC1CC(=O)N(CCCNC(=O)CNC(=O)[C@H](CC(C)C)NC(=O)[C@H](Cc3ccccc3)NC(=O)CNC(=O)CCCCCN3C(=O)CC(SC(C)(C)[C@H](NC(C)=O)C(=O)N4CCC[C@H]4C(=O)N[C@@H](CCCNC(=N)N)C(=O)N(C)[C@@H](CCCNC(=N)N)C(=O)N4CCC[C@H]4C(=O)N[C@@H](Cc4c[nH]c5ccccc45)C(=O)N[C@H](C(=O)N[C@@H](CC(C)C)C(=O)O)C(C)(C)C)C3=O)C1=O)[C@]1(C)O[C@H]1[C@H](C)[C@@H]1C[C@@](O)(NC(=O)O1)[C@H](OC)/C=C/C=C(\C)C2` (stereo partly drawn) [Compound 19], in test [1], the IC50 came out at 6.3 nM. In addition, the inhibition constant (Ki) in test [2] is above 100 nM.

Regarding `COc1cc2cc(c1Cl)N(C)C(=O)C[C@H](OC(=O)[C@H](C)N(C)C(=O)CCSC1CC(=O)N(CCCNC(=O)CNC(=O)[C@H](CC(C)C)NC(=O)[C@H](Cc3ccccc3)NC(=O)CNC(=O)CCCCCN3C(=O)CC(SC(C)(C)[C@H](NC(C)=O)C(=O)N4CCC[C@H]4C(=O)N(C)[C@@H](CCCNC(=N)N)C(=O)N[C@@H](CCCNC(=N)N)C(=O)N4CCC[C@H]4C(=O)N[C@@H](Cc4ccc(O)cc4)C(=O)N[C@H](C(=O)N[C@@H](CC(C)C)C(=O)O)C(C)(C)C)C3=O)C1=O)[C@]1(C)O[C@H]1[C@H](C)[C@@H]1C[C@@](O)(NC(=O)O1)[C@H](OC)/C=C/C=C(\C)C2` (stereo partly drawn) [Compound 20], the IC50 in test [1] worked out at 6.8 nM. Further, in test [2], the Ki stood at 0.93 nM.

Regarding `COc1cc2cc(c1Cl)N(C)C(=O)C[C@H](OC(=O)[C@H](C)N(C)C(=O)CCSC1CC(=O)N(CCCNC(=O)CNC(=O)[C@H](CC(C)C)NC(=O)[C@H](Cc3ccccc3)NC(=O)CNC(=O)CCCCCN3C(=O)CC(SC(C)(C)[C@H](NC(C)=O)C(=O)N4CCC[C@H]4C(=O)N[C@@H](CCCCN)C(=O)N[C@@H](CCCNC(=N)N)C(=O)N4CCC[C@H]4C(=O)N[C@@H](Cc4ccc(O)cc4)C(=O)N[C@H](C(=O)N[C@@H](CC(C)C)C(=O)O)C(C)(C)C)C3=O)C1=O)[C@]1(C)O[C@H]1[C@H](C)[C@@H]1C[C@@](O)(NC(=O)O1)[C@H](OC)/C=C/C=C(\C)C2` (stereo partly drawn) [Compound 21], the IC50 in test [1] amounted to 0.49 nM. In test [2], the Ki was 4.65 nM.

Regarding `COc1cc2cc(c1Cl)N(C)C(=O)C[C@H](OC(=O)[C@H](C)N(C)C(=O)CCSC1CC(=O)N(CCCNC(=O)CNC(=O)[C@H](CC(C)C)NC(=O)[C@H](Cc3ccccc3)NC(=O)CNC(=O)CCCCCN3C(=O)CC(SC(C)(C)[C@H](NC(C)=O)C(=O)N4CCC[C@H]4C(=O)N[C@@H](CCCCN)C(=O)N(C)[C@@H](CCCNC(=N)N)C(=O)N4CCC[C@H]4C(=O)N[C@@H](Cc4ccc(O)cc4)C(=O)N[C@H](C(=O)N[C@@H](CC(C)C)C(=O)O)C(C)(C)C)C3=O)C1=O)[C@]1(C)O[C@H]1[C@H](C)[C@@H]1C[C@@](O)(NC(=O)O1)[C@H](OC)/C=C/C=C(\C)C2` (stereo partly drawn) [Compound 22], the IC50 in test [1] came to 0.53 nM. In addition, the Ki in test [2] turned out to be 12.6 nM.

`COc1cc2cc(c1Cl)N(C)C(=O)C[C@H](OC(=O)[C@H](C)N(C)C(=O)CCSC1CC(=O)N(CCCNC(=O)CNC(=O)[C@H](CC(C)C)NC(=O)[C@H](Cc3ccccc3)NC(=O)CNC(=O)CCC(=O)NCCCC[C@H](NC(=O)c3ccc(C(C)=O)cc3)C(=O)N3CCC[C@H]3C(=O)N(C)[C@@H](CCCNC(=N)N)C(=O)N[C@@H](CCCNC(=N)N)C(=O)N3CCC[C@H]3C(=O)N[C@@H](Cc3ccc(O)cc3)C(=O)N[C@H](C(=O)N[C@@H](CC(C)C)C(=O)O)C(C)(C)C)C1=O)[C@]1(C)O[C@H]1[C@H](C)[C@@H]1C[C@@](O)(NC(=O)O1)[C@H](OC)/C=C/C=C(\C)C2` (stereo partly drawn) [Compound 28]: the IC50 in test [1] was found to be 5.9 nM. Also, the Ki in test [2] was 0.67 nM.

Consider `COc1cc2cc(c1Cl)N(C)C(=O)C[C@H](OC(=O)[C@H](C)N(C)C(=O)CCSC1CC(=O)N(CCCNC(=O)CNC(=O)[C@H](CC(C)C)NC(=O)[C@H](Cc3ccccc3)NC(=O)CNC(=O)CCCCCN3C(=O)CC(SCCC(=O)NCCCC[C@H](NC(C)=O)C(=O)N4CCC[C@H]4C(=O)N[C@H](CCCNC(=N)N)C(=O)N[C@@H](CCCNC(=N)N)C(=O)N4CCC[C@H]4C(=O)N[C@@H](Cc4ccc(O)cc4)C(=O)N[C@H](C(=O)N[C@@H](CC(C)C)C(=O)O)C(C)(C)C)C3=O)C1=O)[C@]1(C)O[C@H]1[C@H](C)[C@@H]1C[C@@](O)(NC(=O)O1)[C@H](OC)/C=C/C=C(\C)C2` (stereo partly drawn) [Compound 29], for which the IC50 in test [1] came to 22 nM. Moreover, the Ki in test [2] amounted to 1.77 nM.

Take `COc1cc2cc(c1Cl)N(C)C(=O)C[C@H](OC(=O)[C@H](C)N(C)C(=O)CCSC1CC(=O)N(CCCNC(=O)CNC(=O)[C@H](CC(C)C)NC(=O)[C@H](Cc3ccccc3)NC(=O)CNC(=O)CCCCCN3C(=O)CC(SCCC(=O)NCCCC[C@H](NC(C)=O)C(=O)N4CCC[C@H]4C(=O)N[C@H](CCCNC(=N)N)C(=O)N[C@@H](CCN)C(=O)N4CCC[C@H]4C(=O)N[C@@H](Cc4ccc(O)cc4)C(=O)N[C@H](C(=O)N[C@@H](CC(C)C)C(=O)O)C(C)(C)C)C3=O)C1=O)[C@]1(C)O[C@H]1[C@H](C)[C@@H]1C[C@@](O)(NC(=O)O1)[C@H](OC)/C=C/C=C(\C)C2` (stereo partly drawn) [Compound 30]: the IC50 in test [1] turned out to be 42.7 nM. Also, the Ki in test [2] is 4.23 nM.

Consider `COc1cc2cc(c1Cl)N(C)C(=O)C[C@H](OC(=O)[C@H](C)N(C)C(=O)CCSC1CC(=O)N(CCCNC(=O)CNC(=O)[C@H](CC(C)C)NC(=O)[C@H](Cc3ccccc3)NC(=O)CNC(=O)CCCCCN3C(=O)CC(SCCC(=O)NCCCC[C@H](NC(C)=O)C(=O)N4CCC[C@H]4C(=O)N[C@@H](CCCNC(=N)N)C(=O)N[C@@H](CCN)C(=O)N4CCC[C@H]4C(=O)N[C@@H](Cc4ccc(O)cc4)C(=O)N[C@H](C(=O)N[C@@H](CC(C)C)C(=O)O)C(C)(C)C)C3=O)C1=O)[C@]1(C)O[C@H]1[C@H](C)[C@@H]1C[C@@](O)(NC(=O)O1)[C@H](OC)/C=C/C=C(\C)C2` (stereo partly drawn) [Compound 31], for which the IC50 in test [1] came to 75.6 nM. The Ki in test [2] was found to be 2.39 nM.

Consider `COc1cc2cc(c1Cl)N(C)C(=O)C[C@H](OC(=O)[C@H](C)N(C)C(=O)CCSC1CC(=O)N(CCCNC(=O)CNC(=O)[C@H](CC(C)C)NC(=O)[C@H](Cc3ccccc3)NC(=O)CNC(=O)CCCCCN3C(=O)CC(SCCC(=O)NCCCC[C@H](NC(C)=O)C(=O)N4CCC[C@H]4C(=O)N[C@@H](CCCCN)C(=O)N[C@@H](CCN)C(=O)N4CCC[C@H]4C(=O)N[C@@H](Cc4ccc(O)cc4)C(=O)N[C@H](C(=O)N[C@@H](CC(C)C)C(=O)O)C(C)(C)C)C3=O)C1=O)[C@]1(C)O[C@H]1[C@H](C)[C@@H]1C[C@@](O)(NC(=O)O1)[C@H](OC)/C=C/C=C(\C)C2` (stereo partly drawn) [Compound 32], for which the IC50 in test [1] was determined as 70.8 nM. Besides, in test [2], the Ki turned out to be 5.03 nM.

Take `COc1cc2cc(c1Cl)N(C)C(=O)C[C@H](OC(=O)[C@H](C)N(C)C(=O)CCSC1CC(=O)N(CCCNC(=O)CNC(=O)[C@H](CC(C)C)NC(=O)[C@H](Cc3ccccc3)NC(=O)CNC(=O)CCCCCN3C(=O)CC(SCCC(=O)NCCCC[C@H](NC(C)=O)C(=O)N4CCC[C@H]4C(=O)N[C@@H](CCCCN)C(=O)N[C@@H](CCCNC(=N)N)C(=O)N4CCC[C@H]4C(=O)N[C@@H](Cc4ccc(O)cc4)C(=O)N[C@H](C(=O)N[C@@H](CC(C)C)C(=O)O)C(C)(C)C)C3=O)C1=O)[C@]1(C)O[C@H]1[C@H](C)[C@@H]1C[C@@](O)(NC(=O)O1)[C@H](OC)/C=C/C=C(\C)C2` (stereo partly drawn) [Compound 33]: the IC50 in test [1] was 105 nM. Also, the Ki in test [2] amounted to 2.32 nM.
